IC50 data for 26 compounds are collected here from patent US20210380606A1, “5-AZAINDAZOLE DERIVATIVES AS ADENOSINE RECEPTOR ANTAGONISTS” (Merck Patent GmbH, priority 2018, published 2021).

The target of one assay is T1, human A2A receptors (Homo sapiens, UniProt P29274).
T1 construct: expressed in transfected cells; host or cells: HEK293
Briefly: Functional human A2A receptor activity, recombinant HEK293 cells, cAMP (HTRF). The format is cell-based. The note with it: read-out: A2A (Category). The method in brief:
(§1)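 Following a 15 min incubation, HTRF detection reagents are added and intracellular cAMP is quantified.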

The target in another assay is T2, human A2B receptors (Homo sapiens, UniProt P29275).
T2 construct: expressed in transfected cells; host or cells: HEK293
T2 sequence (P29275 1-332): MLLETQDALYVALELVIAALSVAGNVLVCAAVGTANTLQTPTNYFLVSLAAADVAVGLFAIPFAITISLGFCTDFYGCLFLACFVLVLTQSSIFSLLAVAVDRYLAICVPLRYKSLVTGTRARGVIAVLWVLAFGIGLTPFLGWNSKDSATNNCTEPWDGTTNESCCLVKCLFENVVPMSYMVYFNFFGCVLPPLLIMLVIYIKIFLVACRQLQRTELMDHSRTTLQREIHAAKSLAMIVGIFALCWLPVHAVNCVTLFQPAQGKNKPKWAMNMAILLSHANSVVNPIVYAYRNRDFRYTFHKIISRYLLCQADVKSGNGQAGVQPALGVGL
Briefly: Functional human A2B receptor activity, recombinant HEK293 cells, cAMP (HTRF). The format is cell-based. The conditions noted are these: read-out: A2B (Category). The method in brief:
as §1
On the technique in general: Time-resolved FRET reads energy transfer from a long-lived donor to a nearby acceptor.

T1 sequence (P29274 whole entry): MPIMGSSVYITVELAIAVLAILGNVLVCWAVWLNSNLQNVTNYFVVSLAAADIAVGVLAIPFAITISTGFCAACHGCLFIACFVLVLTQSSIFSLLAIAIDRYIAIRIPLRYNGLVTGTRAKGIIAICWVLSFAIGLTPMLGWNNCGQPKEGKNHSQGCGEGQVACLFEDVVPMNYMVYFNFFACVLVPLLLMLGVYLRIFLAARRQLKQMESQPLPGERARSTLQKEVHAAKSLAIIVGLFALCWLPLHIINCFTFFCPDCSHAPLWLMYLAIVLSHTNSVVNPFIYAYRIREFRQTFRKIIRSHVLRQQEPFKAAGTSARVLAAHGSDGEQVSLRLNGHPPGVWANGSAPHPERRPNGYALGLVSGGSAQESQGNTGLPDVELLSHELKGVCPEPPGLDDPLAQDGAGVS

In the case of `O=C(c1cc2c(cn1)c(-c1c[nH]c3ncccc13)nn2CC(F)(F)F)N1CCCCCC1` [Compound 92, Azepan-1-yl-[3-(1H-pyrrolo[2,3-b]pyridin-3-yl)-1-(2,2,2-trifluoro-ethyl)-1H-pyrazolo[4,3-c]pyridin-6-yl]-methanone], the values for the IC50 on human A2A receptors and on human A2B receptors were < 100 nM and < 1000 nM, respectively.
As to `O=C(c1cc2c(cn1)c(-c1coc3ccccc13)nn2CC(F)(F)F)N1CCCOCC1` [Compound 94, [3-Benzofuran-3-yl-1-(2,2,2-trifluoro-ethyl)-1H-pyrazolo[4,3-c]pyridine-6-yl]-1,4-oxazepan-4-yl-methanone], the IC50 at human A2A receptors and at human A2B receptors was < 100 nM each time.
For `O=C(c1cc2c(cn1)c(-c1cnn3ccccc13)nn2CC(F)(F)F)N1CCCOCC1` [Compound 95, 1,4-Oxazepan-4-yl-[3-pyrazolo[1,5-a]pyridine-3-yl-1-(2,2,2-trifluoro-ethyl)-1H-pyrazolo[4,3-c]pyridine-6-yl]-methanone], the values for the IC50 at human A2A receptors and at human A2B receptors were < 100 nM and < 1000 nM, respectively.
In the case of `O=C(c1cc2c(cn1)c(-c1c[nH]c3ccccc13)nn2CC(F)(F)F)N1CCCOCC1` [Compound 96, [3-(1H-Indol-3-yl)-1-(2,2,2-trifluoro-ethyl)-1H-pyrazolo[4,3-c]pyridine-6-yl]-1,4-oxazepan-4-yl-methanone], the IC50 at human A2A receptors was < 100 nM; on human A2B receptors it was < 1000 nM.
The corresponding values for `O=C(c1cc2c(cn1)c(-c1cnn3ccccc13)nn2CC(F)(F)F)N1CC2CCC(C1)O2` [Compound 99, (8-Oxa-3-aza-bicyclo[3.2.1]oct-3-yl)-[3-pyrazolo[1,5-a]pyridin-3-yl-1-(2,2,2-trifluoro-ethyl)-1H-pyrazolo[4,3-c]pyridin-6-yl]-methanone] are < 100 nM and < 1000 nM.
In the case of `O=C(c1cc2c(cn1)c(-c1coc3ccccc13)nn2CC(F)(F)F)N1CC2CCC(C1)O2` [Compound 100, [3-Benzofuran-3-yl-1-(2,2,2-trifluoro-ethyl)-1H-pyrazolo[4,3-c]pyridin-6-yl]-(8-oxa-3-aza-bicyclo[3.2.1]oct-3-yl)-methanone], the IC50 on human A2A receptors and at human A2B receptors was < 100 nM in each case.
With `O=C(c1cc2c(cn1)c(-c1coc3ccccc13)nn2CC(F)(F)F)N1CC2CCC(C2)C1` [Compound 101, (3-Aza-bicyclo[3.2.1]oct-3-yl)-[3-benzofuran-3-yl-1-(2,2,2-trifluoro-ethyl)-1H-pyrazolo[4,3-c]pyridin-6-yl]-methanone], the IC50 at human A2A receptors and at human A2B receptors was < 100 nM each time.
On to `O=C(c1cc2c(cn1)c(-c1cnn3ccccc13)nn2CC(F)(F)F)N1CC2CCC(C2)C1` [Compound 102, (3-Aza-bicyclo[3.2.1]oct-3-yl)-[3-pyrazolo[1,5-a]pyridin-3-yl-1-(2,2,2-trifluoro-ethyl)-1H-pyrazolo[4,3-c]pyridin-6-yl]-methanone], for which the IC50 at human A2A receptors and at human A2B receptors was < 100 nM each time.
On to `O=C(c1cc2c(cn1)c(-c1coc3ccccc13)nn2CC(F)F)N1CCCOCC1` [Compound 103, [3-Benzofuran-3-yl-1-(2,2-difluoro-ethyl)-1H-pyrazolo[4,3-c]pyridin-6-yl]-1,4-oxazepan-4-yl-methanone], for which the results for the IC50 on human A2A receptors and on human A2B receptors were < 100 nM and < 1000 nM, respectively.
Regarding `O=C(c1cc2c(cn1)c(-c1coc3ccccc13)nn2CCF)N1CCCOCC1` [Compound 104, [3-Benzofuran-3-yl-1-(2-fluoro-ethyl)-1H-pyrazolo[4,3-c]pyridin-6-yl]-1,4-oxazepan-4-yl-methanone], the results for the IC50 at human A2A receptors and on human A2B receptors were < 100 nM and < 1000 nM, respectively.
With `NC(=O)Cn1nc(-c2coc3ccccc23)c2cnc(C(=O)N3CCCOCC3)cc21` [Compound 105, 2-[3-Benzofuran-3-yl-6-(1,4-oxazepane-4-carbonyl)-pyrazolo[4,3-c]pyridin-1-yl]-acetamide], the IC50 at human A2A receptors is < 100 nM; at human A2B receptors, < 1000 nM.
The matching figures for `CCCn1nc(-c2coc3ccccc23)c2cnc(C(=O)N3CCCOCC3)cc21` [Compound 106, (3-Benzofuran-3-yl-1-propyl-1H-pyrazolo[4,3-c]pyridin-6-yl)-1,4-oxazepan-4-yl-methanone]: < 100 nM and < 1000 nM.
The corresponding values for `CS(=O)(=O)Cn1nc(-c2coc3ccccc23)c2cnc(C(=O)N3CC4CCC(C3)O4)cc21` [Compound 107, (3-Benzofuran-3-yl-1-methanesulfonylmethyl-1H-pyrazolo[4,3-c]pyridine-6-yl)-(8-oxa-3-aza-bicyclo[3.2.1]oct-3-yl)-methanone] are < 100 nM and < 100 nM.
As for `CS(=O)(=O)Cn1nc(-c2cnn3ccccc23)c2cnc(C(=O)N3CC4CCC(C3)O4)cc21` [Compound 108, (1-Methanesulfonylmethyl-3-pyrazolo[1,5-a]pyridine-3-yl-1H-pyrazolo[4,3-c]pyridine-6-yl)-(8-oxa-3-aza-bicyclo[3.2.1]oct-3-yl)-methanone], the IC50 was < 100 nM on human A2A receptors and < 1000 nM on human A2B receptors.
The matching figures for `CS(=O)(=O)Cn1nc(-c2coc3ccc(F)cc23)c2cnc(C(=O)N3CCCOCC3)cc21` [Compound 110, [3-(5-fluorobenzofuran-3-yl)-1-(methylsulfonylmethyl)pyrazolo[4,3-c]pyridin-6-yl]-(1,4-oxazepan-4-yl)methanone]: < 100 nM and < 100 nM.
The matching figures for `CS(=O)(=O)Cn1nc(-c2coc3ccc(F)cc23)c2cnc(C(=O)N3CC4CCC(C3)O4)cc21` [Compound 111, [3-(5-fluorobenzofuran-3-yl)-1-(methylsulfonylmethyl)pyrazolo[4,3-c]-pyridin-6-yl]-(8-oxa-3-azabicyclo[3.2.1]octan-3-yl)methanone]: < 100 nM and < 100 nM.
Regarding `O=C(c1cc2c(cn1)c(-c1c[nH]c3ccccc13)nn2CC(F)(F)F)N1[C@@H]2CC[C@H]1C[C@@H](O)C2` [Compound 112, (3-endo-hydroxy-8-azabicyclo[3.2.1]octan-8-yl)-[3-(1H-indol-3-yl)-1-(2,2,2-trifluoroethyl)pyrazolo[4,3-c]pyridin-6-yl]methanone], the IC50 at human A2A receptors and on human A2B receptors was < 100 nM in each case.
`O=C(c1cc2c(cn1)c(-c1cnn3ccccc13)nn2CC(F)(F)F)N1[C@@H]2CC[C@H]1C[C@@H](O)C2` [Compound 113, (3-endo-hydroxy-8-azabicyclo[3.2.1]octan-8-yl)-[3-pyrazolo[1,5-a]pyridin-3-yl-1-(2,2,2-trifluoroethyl)pyrazolo[4,3-c]pyridin-6-yl]methanone]: the IC50 at human A2A receptors and on human A2B receptors was < 100 nM each time.
As for `O=C(c1cc2c(cn1)c(-c1cnn3ccccc13)nn2CC(F)(F)F)N1CCC(O)CC1` [Compound 114, (4-hydroxy-1-piperidyl)-[3-pyrazolo[1,5-a]pyridin-3-yl-1-(2,2,2-trifluoroethyl)pyrazolo[4,3-c]pyridin-6-yl]methanone], the IC50 at human A2A receptors and on human A2B receptors was < 100 nM each time.
As for `O=C(c1cc2c(cn1)c(-c1coc3ccc(F)cc13)nn2CC(F)(F)F)N1CCC(O)CC1` [Compound 115, [3-(5-fluorobenzofuran-3-yl)-1-(2,2,2-trifluoroethyl)pyrazolo[4,3-c]pyridin-6-yl]-(4-hydroxy-1-piperidyl)methanone], the IC50 on human A2A receptors and at human A2B receptors was < 100 nM throughout.
Take `CC1(O)CCN(C(=O)c2cc3c(cn2)c(-c2coc4ccc(F)cc24)nn3CC(F)(F)F)CC1` [Compound 116, [3-(5-fluorobenzofuran-3-yl)-1-(2,2,2-trifluoroethyl)pyrazolo[4,3-c]pyridin-6-yl]-(4-hydroxy-4-methyl-1-piperidyl)methanone]: the IC50 on human A2A receptors and at human A2B receptors was < 100 nM each time.
Regarding `CC1(O)CCN(C(=O)c2cc3c(cn2)c(-c2cnn4ccccc24)nn3CC(F)(F)F)CC1` [Compound 117, (4-hydroxy-4-methyl-1-piperidyl)-[3-pyrazolo[1,5-a]pyridin-3-yl-1-(2,2,2-trifluoroethyl)pyrazolo[4,3-c]pyridin-6-yl]methanone], the IC50 was < 100 nM at human A2A receptors and < 1000 nM on human A2B receptors.
The matching figures for `O=C(c1cc2c(cn1)c(-c1coc3ccc(F)cc13)nn2CC(F)(F)F)N1CCOCC(O)C1` (stereo not shown) [Compound 118, [3-(5-fluorobenzofuran-3-yl)-1-(2,2,2-trifluoroethyl)pyrazolo[4,3-c]pyridin-6-yl]-(6-hydroxy-1,4-oxazepan-4-yl)methanone]: < 100 nM and < 100 nM.
The matching figures for `O=C(c1cc2c(cn1)c(-c1cnn3ccccc13)nn2CC(F)(F)F)N1CCOCC(O)C1` (stereo not shown) [Compound 119, (6-hydroxy-1,4-oxazepan-4-yl)-[3-pyrazolo[1,5-a]pyridin-3-yl-1-(2,2,2-trifluoroethyl)pyrazolo[4,3-c]pyridin-6-yl]methanone]: < 100 nM and < 1000 nM.
For the compound `[2H]C1([2H])COCCN(C(=O)c2cc3c(cn2)c(-c2coc4ccc(F)cc24)nn3CC(F)(F)F)C1` [Compound 120, [3-(5-fluorobenzofuran-3-yl)-1-(2,2,2-trifluoroethyl)pyrazolo[4,3-c]pyridin-6-yl]-(6,6-dideuterio-1,4-oxazepan-4-yl)methanone], the IC50 at human A2A receptors and at human A2B receptors was < 100 nM throughout.
As for `[2H]C1([2H])COCCN(C(=O)c2cc3c(cn2)c(-c2cnn4ccccc24)nn3CC(F)(F)F)C1` [Compound 121, (6,6-dideuterio-1,4-oxazepan-4-yl)-[3-pyrazolo[1,5-a]pyridin-3-yl-1-(2,2,2-trifluoroethyl)pyrazolo[4,3-c]pyridin-6-yl]methanone], the IC50 at human A2A receptors and on human A2B receptors was < 100 nM in each case.
